Test results published in PMC9780888, “4-Isobutylmethcathinone—A Novel Synthetic Cathinone with High In Vitro Cytotoxicity and Strong Receptor Binding Preference of Enantiomers” (Pharmaceuticals, 2022).

Columns and labels:
CaCo-2 cells = test: Fluorescence microscopy of cell morphology, CaCo-2; format: cell-based, human; details: CaCo-2, 24-h treatment, 100, 300 and 500 µM tested; cells smaller, roundish, in clusters
Description: In addition to the evaluation of IBMcat cytotoxicity in various cell lines, its impact on cell morphology was also examined in CaCo-2 and MRC-5 cells after 24-h treatment. F-actin and cell nuclei were visualized in these cells treated with 100, 300, and 500-µM concentrations of IBMcat and its enantiomers. IBMcat (Figure 7) induced a considerable change in CaCo-2 cell morphology already from 300-µM concentration, the cells were smaller, bore roundish shapes, and grew in clusters when compared to control untreated cells. This could be ascribed to the substantial toxicity of IBMcat manifested already after 24 h at this concentration. No difference was observed between the individual enantiomers.
A total of 1 × 10^5 CaCo-2 and MRC-5 cells were seeded into 35-mm glass-bottom dishes for live-cell imaging ((#1.5, MatTek, USA; Ibidi dishes, Germany). After 16 h, the cells were gently washed with phosphate-buffered saline (PBS; pH 7.4), and then, cultivation media containing 100–500 µM IBMCat was added. Untreated cells and cells treated with the vehicle served as controls. After 24 h of the cell incubation with IBMCat, the cells were gently washed with PBS and then fixed with a 4% solution of formaldehyde (methanol-free, Thermo Fisher, USA) in PBS for 20 min. at 22 °C in the dark. Then, the fixative was discarded, and the cells were washed twice with PBS. […]

dopamine receptor DAR1 = target: T1, dopamine receptor DAR1 (Homo sapiens, UniProt P21728); test: PRESTO-Tango β-arrestin 2 recruitment assay, DAR1; format: cell-based; details: HTLA cells
T1 construct: host or cells: HTLA (HEK 293-derived)
T1 sequence (P21728 whole entry): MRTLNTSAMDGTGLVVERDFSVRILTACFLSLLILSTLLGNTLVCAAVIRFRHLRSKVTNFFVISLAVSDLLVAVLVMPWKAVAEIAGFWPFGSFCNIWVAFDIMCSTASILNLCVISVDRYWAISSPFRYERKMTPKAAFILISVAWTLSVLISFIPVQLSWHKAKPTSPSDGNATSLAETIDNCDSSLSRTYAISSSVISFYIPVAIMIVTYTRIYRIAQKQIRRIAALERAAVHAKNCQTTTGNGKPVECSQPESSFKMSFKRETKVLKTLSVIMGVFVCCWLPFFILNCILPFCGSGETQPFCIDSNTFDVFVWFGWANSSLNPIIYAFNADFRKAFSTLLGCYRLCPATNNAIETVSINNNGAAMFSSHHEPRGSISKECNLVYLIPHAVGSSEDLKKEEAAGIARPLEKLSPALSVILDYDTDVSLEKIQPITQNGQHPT
Description: However, binding to a specific receptor/transporter and, thus, the mechanism of action of a given cathinone always depends on the specific structure of the evaluated compound [37]. In this study, the binding activity of IBMcat and its enantiomers was verified by PRESTO-Tango (parallel receptor expression and screening via transcriptional output, with transcriptional activation following arrestin-2 translocation) assay using the HTLA cell line stably producing β-arrestin-2 in a fusion with TEV and luciferase production driven by tTA. […] The transcription factor then translocates to the cell nucleus, in which it triggers the transcription of the target gene for luciferase production which can be determined by the light emitted from luciferin conversion to oxyluciferin. Here, the pronounced luminescence was recorded for all DAR1-4 types in HTLA cells treated with IBMCat and its enantiomers (Figure 8). […]
The transfected HTLA cells were incubated for 24 h, and then 1 × 10^4 cells were seeded per well of a white 96-well clear bottom plate (Brand, Germany) in 40 μL of DMEM with 1% charcoal-stripped FBS (Thermo Fisher Scientific, USA). […] After 5 min., the luminescence was measured using a multi-mode microplate reader SpectraMax iD5 (Molecular Devices, San Jose, CA, USA) measuring the entire wavelength spectrum. All samples were measured in quadruplicates. […]

Compound: CNC(C)C(=O)c1ccc(CC(C)C)cc1.Cl (stereo not drawn) [IBMcat, 4-isobutylmethcathinone hydrochloride]
- concentration from which a considerable change in cell morphology was induced (CaCo-2 cells): ≥ 300 µM
- effect on DAR1 (increase in RLU with increasing concentration) (dopamine receptor DAR1; 0-500 nM): acted as agonists
- concentration from which no further increase in RLU was detected (maximum effective concentration) (dopamine receptor DAR1; DAR1): 10 nM
